Values joined by “and” are separate entries in the source; they are usually repeats but may differ in a detail not shown here. Equal values may be shown once.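 All cell lines were grown in 96-well plates and treated with compound for 48 hours. Abbreviation: GI50, concentration required for 50% inhibition of growth. TGI is the concentration that stops growth completely.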
Tests used:
Assay in all cases: inhibition of tumour cell growth, NCI panel, 48 h
HCC-2998 colon = test system: HCC-2998 colon
SF-295 CNS = test system: SF-295 CNS
K-562 leukemia = test system: K-562 leukemia
TK-10 renal = test system: TK-10 renal
SF-268 CNS = test system: SF-268 CNS
SF-539 CNS = test system: SF-539 CNS
MALME-3M melanoma = test system: MALME-3M melanoma
HT29 colon = test system: HT29 colon
SNB-19 CNS = test system: SNB-19 CNS
UO-31 renal = test system: UO-31 renal

Compound	GI50 (HCC-2998 colon) [µM]	TGI (HCC-2998 colon) [µM]	GI50 (SF-295 CNS) [µM]	TGI (SF-295 CNS) [µM]	GI50 (K-562 leukemia)	TGI (K-562 leukemia)	GI50 (TK-10 renal) [µM]	TGI (TK-10 renal) [µM]	GI50 (SF-268 CNS) [µM]	TGI (SF-268 CNS) [µM]	GI50 (SF-539 CNS) [µM]	TGI (SF-539 CNS) [µM]	GI50 (MALME-3M melanoma) [µM]	TGI (MALME-3M melanoma)	GI50 (HT29 colon) [µM]	TGI (HT29 colon)	GI50 (SNB-19 CNS) [µM]	TGI (SNB-19 CNS)	GI50 (UO-31 renal) [µM]	TGI (UO-31 renal)
CC(=O)C1=C(O)C=C2Oc3c(C(=O)/C=C/c4cc(Cl)cc(Cl)c4)c(O)c(C)c(O)c3[C@]2(C)C1=O	0.667	2.69	0.36	0.887	0.497 µM	15 µM	0.446	1.68	0.67	3.38	0.552	2.26	0.335	0.739 µM	0.47	1.56 µM	0.582	3.06 µM	0.392	1.03 µM
CCOc1ccn(-c2ccc(F)cc2)c(=O)c1C(=O)Nc1ccc(Oc2ccnc(N)c2Cl)c(F)c1	38.5	> 100	0.787	48.3	4.42 µM	> 100 µM	15.1	55.2	10.9	> 100	7.53	34.1	7.72	46.4 µM	6.63	82.3 µM	27.8	> 100 µM	8.99	63.4 µM
CC(=O)[C@H]1CCC2[C@@H]3CC=C4C[C@@H]([O-])CC[C@]4(C)C3CC[C@@]21C.CC(=O)[C@H]1CCC2[C@@H]3CC=C4C[C@@H]([O-])CC[C@]4(C)C3CC[C@@]21C.CC(=O)[CH-]C(=O)c1ccccc1.CC(=O)[CH-]C(=O)c1ccccc1.Cl.[Ti+4] (some centres undefined)	33.2	85.3	17.4	46.4	12.7 µM	> 100 µM	40.7	> 100	21.3	92.8	9.44	–	16	37.3 µM	14.2	> 100 µM	–	–	28.9	79.3 µM
Clc1cccc(C2N3CCCCC3[C@@H]3c4[nH]c5ccccc5c4CCN23)c1 (some centres undefined)	–	99.7	–	> 100	–	65.8 µM	–	> 100	–	> 100	–	57.7	–	42.2 µM	–	34.2 µM	–	> 100 µM	–	82 µM
O=C1C=CC(=O)c2c(O)c3c(c(O)c21)C[C@H](O)[C@H](O)[C@@H]3O	–	21.3	–	20.3	–	> 21.2 µM	–	3.27	–	8.02	–	9.16	–	2.6 µM	–	5.83 µM	–	26.9 µM	–	> 24 µM
CC(=O)[CH-]C(=O)c1ccccc1.CC(=O)[CH-]C(=O)c1ccccc1.O=S(=O)([O-])c1cc([O-])c2c([O-])cc(S(=O)(=O)[O-])cc2c1.[Na+].[Zr+4]	> 100	> 100	69.8	> 100	> 100 µM	> 100 µM	–	–	> 100	> 100	> 100	> 100	53.1	> 100 µM	> 100	> 100 µM	35.3	> 100 µM	> 100	> 100 µM
O=c1c(Cl)c(Cl)cnn1CCCl	–	9.39	–	31.4	–	5.18 µM	–	30.3	–	14.1	–	29.5	–	7.14 µM	–	10.8 µM	–	16.4 µM	–	10.7 µM
CCCCCCCCCC[C@H](O)[C@H](O)CC[C@@H](O)[C@H]1CC[C@@H]([C@H]2CC[C@H](CCCCCCC[C@@H](O)CC3=C[C@H](C)OC3=O)O2)O1	–	47	0.416	31.9	–	–	36.3	> 100	29.3	> 100	15.5	40.9	–	48.3 µM	–	5.64 µM	29.5	–	16.6	4.18 µM and 32.3 µM
O=C(Nc1ccc(Cl)c(Cl)c1)C(=O)C(C(=O)c1ccccc1-c1ccccc1)C1OC(=O)c2ccccc21 (centres undefined)	–	27.6	–	73.6	–	> 100 µM	–	43.7	–	72.2	–	27.9	–	–	–	> 100 µM	–	–	–	33.6 µM
O=C(O)C1[O][Sb][O]C(C(=O)O)C1O (centres undefined)	–	–	> 100	> 100	> 100 µM	> 100 µM	> 100	> 100	> 100	> 100	–	–	> 100	> 100 µM	> 100	> 100 µM	> 100	> 100 µM	> 100	> 100 µM
CC(C)CCCCCCCCCCCCC(=O)NCC(=O)NC1C(O)C(O)C(Nc2ncnc3nc[nH]c23)OC1C(O)CO (centres undefined)	< 1e-05	–	–	–	0.00331 µM and 0.0128 µM	0.412 µM and 3.94 µM	< 1e-05	–	–	–	–	–	–	0.0125 µM and 0.00724 µM	–	0.0109 µM and 0.0666 µM and 0.0148 µM	–	0.0121 µM and 0.00367 µM and 0.00683 µM	0.005	0.00451 µM and 0.0075 µM
CC1=CC(C)(C)NN1C1=NS(=O)(=O)c2ccccc2N1C	–	> 100	–	> 100	–	> 100 µM	–	> 100	–	> 100	–	> 100	–	–	–	> 100 µM	–	> 100 µM	–	> 100 µM
CC1NC(=O)C2=C1C(=O)NC(=O)C2 (centres undefined)	> 100	> 100	> 100	> 100	> 100 µM	> 100 µM	> 100	> 100	> 100	> 100	> 100	> 100	–	–	–	–	–	–	> 100	> 100 µM
COC1OC2COC(C)(C)OC2C(OC(C)=O)C1NC(=O)N(CCCl)N=O (centres undefined)	–	> 100	–	> 100	–	> 100 µM	–	> 100	–	> 100	–	93.1	–	> 100 µM	–	> 100 µM	–	> 100 µM	–	–
C/C=C1/CC(C)C(C)(O)C(=O)OCC2C(O)CN3CCC(OC1=O)C23 (centres undefined)	–	> 100	–	> 100	–	> 100 µM	–	> 100	–	> 100	–	> 100	–	–	–	> 100 µM	–	> 100 µM	–	–
COc1cccc(Nc2nc3ccccc3c3occc23)c1	8.9	21.8	3.92	14.6	6.27 µM	> 100 µM	5.79	17.2	13.9	34.1	17.3	35.1	–	–	–	–	12.9	25.8 µM	6.98	27.6 µM
O=C(Nc1ccc(Cl)cc1Cl)OC(Cn1cncn1)c1ccc(Cl)cc1Cl (centres undefined)	–	–	–	31.4	–	> 100 µM	–	–	–	31.9	–	32.5	–	29.3 µM	–	28.5 µM	–	30.8 µM	–	26 µM

Compound	GI50 (HCC-2998 colon) [µM]	TGI (HCC-2998 colon) [µM]	GI50 (SF-295 CNS) [µM]	TGI (SF-295 CNS) [µM]	GI50 (K-562 leukemia)	TGI (K-562 leukemia)	GI50 (TK-10 renal) [µM]	TGI (TK-10 renal) [µM]	GI50 (SF-268 CNS) [µM]	TGI (SF-268 CNS) [µM]	GI50 (SF-539 CNS) [µM]	TGI (SF-539 CNS) [µM]	GI50 (MALME-3M melanoma) [µM]	TGI (MALME-3M melanoma)	GI50 (HT29 colon) [µM]	TGI (HT29 colon)	GI50 (SNB-19 CNS) [µM]	TGI (SNB-19 CNS)	GI50 (UO-31 renal) [µM]	TGI (UO-31 renal)
O=C1c2ccccc2-c2c1c1ccccc1c(=O)n2CCCNCCn1c2c(c3ccccc3c1=O)C(=O)c1ccccc1-2	–	–	7.77	27.5	19.2 µM	42.3 µM	3.8	15.8	7.6	26.5	14.6	27.8	22.1	40.3 µM	2.42	10 µM	2.48	11.6 µM	–	17.3 µM
CN(/N=C\c1ccnc2ccccc12)c1ccc([N+](=O)[O-])cc1	–	> 100	–	> 100	–	> 100 µM	–	> 100	–	> 100	–	> 100	–	> 100 µM	–	> 100 µM	–	> 100 µM	–	–
COc1ccc(/C=C2/SC(Nc3nc(-c4nc(NC5=NC(=O)/C(=C\c6ccc(OC)cc6)S5)sc4C)c(C)s3)=NC2=O)cc1	0.82	3.66	0.255	4.97	0.631 µM	> 16.2 µM	0.172	0.77	2.79	> 33.8	1.36	3.95	–	–	1.99	> 50 µM	5.81	> 50 µM	4.27	> 32.2 µM
O=C(NCC1CCCO1)c1ccc(NC2=C(Cl)C(=O)N(Cc3ccccc3)C2=O)cc1 (centres undefined)	13.1	27.1	12.1	25	11.1 µM	34.3 µM	–	–	13.2	45.4	15.4	31.2	–	–	22.2	88 µM	21.5	45.1 µM	2.67	8.24 µM
O=C1O/C(=C/c2ccccc2)C(c2ccccc2)=C1O	–	> 100	–	> 100	–	> 100 µM	–	> 100	–	–	–	> 100	–	> 100 µM	–	> 100 µM	–	> 100 µM	–	88.1 µM
COC(=O)C1=CC2C=CC(C1C(=O)OC)C1C(C(=O)OC)=C(C(=O)OC)C(C(=O)OC)=C(C(=O)OC)C21OC (centres undefined)	–	> 100	–	> 100	–	–	–	> 100	–	> 100	–	> 100	–	> 100 µM	–	> 100 µM	–	–	–	> 100 µM
Nc1nc(/C=C\c2ccccc2)nc(N2CCN(c3ccccc3)CC2)n1	17.9	41.5	30	> 100	20.5 µM	65.1 µM	28.4	81.1	42.2	> 100	41.1	> 100	–	–	18	41.8 µM	20.4	60 µM	38.4	> 100 µM
COc1cc(/C=N/N=C(\N)NO)c(Cl)cc1O	–	> 100	–	> 100	–	> 100 µM	–	–	–	> 100	–	> 100	–	> 100 µM	–	> 100 µM	–	> 100 µM	–	> 100 µM
Cc1cc(C)c(-c2noc(-c3ccc(Cl)cc3)c2C2=NCCCN2)c(C)c1	–	43.6	–	25.4	–	37.7 µM	–	–	–	49.6	–	30.5	–	36.8 µM	–	32.5 µM	–	> 100 µM	–	> 100 µM
Cc1cc(C)c(-c2c(N)cc(Br)cc2Br)c(N)c1	10.9	23.1	3.16	14.8	–	–	7.17	20.5	7.86	21.5	2.94	9.87	5.09	20.3 µM	3.49	13.1 µM	6.68	26.4 µM	5.4	20 µM
NS(=O)(=O)c1cc(C(=O)O)c(O)c2ccccc12	–	–	–	> 100	–	> 100 µM	–	> 100	–	> 100	–	> 100	–	> 100 µM	–	> 100 µM	–	> 100 µM	–	> 100 µM
CNS(=O)(=O)NNS(=O)(=O)c1ccc(OC)cc1	–	> 100	–	> 100	–	> 100 µM	–	–	–	> 100	–	> 100	–	> 100 µM	–	> 100 µM	–	> 100 µM	–	> 100 µM
CCN(CC)CCCC(C)N/C(=C1\C(=O)NC(=O)\C1=C(/NC(C)CCCN(CC)CC)c1cccc(OC)c1)c1cccc(OC)c1 (centres undefined)	0.845	1.61	0.813	1.78	0.581 µM	3.86 µM	–	–	1.03	3.11	0.791	1.51	0.85	1.63 µM	0.372	2.01 µM	1.99	9.01 µM	0.733	1.49 µM
COc1ccc(OC)c(/C=N/N=C(\N)NO)c1	–	–	–	> 100	–	> 100 µM	–	56	–	> 100	–	> 100	–	> 100 µM	–	> 100 µM	–	> 100 µM	–	60.3 µM
Cc1cc2c(-c3nc4ccccn4c3N)c(O)c(O)cc2c(O)c1-c1c(C)cc2c(-c3nc4ccccn4c3N)c(O)c(O)cc2c1O	1.59	> 25	–	–	1.02 µM	> 25 µM	1.51	> 25	0.653	> 25	0.707	20.9	0.81	> 25 µM	0.979	> 25 µM	0.661	> 25 µM	1.12	> 25 µM
COC(=O)[C@@]12CC(C(C)C)[C@H]3CC(C(=O)C=C1OC)[C@H]32 (some centres undefined)	–	> 100	–	> 100	–	> 100 µM	–	> 100	–	> 100	–	> 100	–	> 100 µM	–	> 100 µM	–	> 100 µM	–	–

From PubChem BioAssay (NCI)
